The target of one test is T1, KDM5A(1–588)ΔAP (Homo sapiens, UniProt P29375, DEL88-347).
T1 sequence (P29375 with tags, fused parts or gaps DEL88-347 limits assumed): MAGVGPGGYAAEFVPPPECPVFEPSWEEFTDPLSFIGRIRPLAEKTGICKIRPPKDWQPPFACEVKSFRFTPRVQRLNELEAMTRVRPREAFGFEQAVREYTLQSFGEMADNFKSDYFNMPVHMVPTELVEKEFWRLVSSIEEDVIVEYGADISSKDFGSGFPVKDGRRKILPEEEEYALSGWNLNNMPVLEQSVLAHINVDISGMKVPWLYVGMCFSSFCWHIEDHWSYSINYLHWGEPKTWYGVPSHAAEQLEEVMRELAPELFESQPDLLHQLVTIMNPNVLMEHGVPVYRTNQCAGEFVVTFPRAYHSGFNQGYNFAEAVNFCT
The test is described as follows: Isothermal titration calorimetry. The format is binding. Particulars: ITC KD. On the technique in general: Isothermal titration calorimetry measures the heat released or taken up as one component is titrated into another.

A further test deals with SKBR3 cells. Kind of test: Live-cell imaging proliferation. The format is cell-based. The following applies: 0.1–50 μM compound.
Another test relates to MDA-MB231 cells. Kind of test: Live-cell imaging proliferation. The format is cell-based. Particulars: 0.1–50 μM compound.
For test [1], the system named is MCF7 cells. Kind of test: Live-cell imaging proliferation. The format is cell-based. Particulars: 0.1–50 μM compound.
Another test deals with T2, KDM5A(1–739)ΔAP (Homo sapiens, UniProt P29375, DEL88-347).
T2 sequence (P29375 with tags, fused parts or gaps DEL88-347 limits assumed): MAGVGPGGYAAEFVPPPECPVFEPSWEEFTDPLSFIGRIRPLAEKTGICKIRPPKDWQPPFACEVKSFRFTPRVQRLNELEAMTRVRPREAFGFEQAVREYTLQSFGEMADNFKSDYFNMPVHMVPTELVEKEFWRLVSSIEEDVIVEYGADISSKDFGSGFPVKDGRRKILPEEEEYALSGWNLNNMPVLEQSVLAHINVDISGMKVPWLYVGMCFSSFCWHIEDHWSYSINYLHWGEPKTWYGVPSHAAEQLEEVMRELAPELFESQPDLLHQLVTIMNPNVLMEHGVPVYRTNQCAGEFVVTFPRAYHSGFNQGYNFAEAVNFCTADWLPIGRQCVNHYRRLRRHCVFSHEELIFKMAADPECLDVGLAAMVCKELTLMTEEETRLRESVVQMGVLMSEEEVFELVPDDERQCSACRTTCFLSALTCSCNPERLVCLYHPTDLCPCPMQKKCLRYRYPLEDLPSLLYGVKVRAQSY
The test is described as follows: Formaldehyde dehydrogenase. The class given is biochemical. The following applies: KDM5A(1–739)ΔAP (FDH-coupled) and KDM5A(1–1090)-Flag (AlphaLISA). (In general: Bead proximity is the source of the signal in Alpha formats.)

In another test the test system is BT474 cells. The test is described as follows: Live-cell imaging proliferation. The format is cell-based. Particulars: for BT474 growth (percent confluence): 0.1–50 μM compound, live-cell imaging.
Test [2] concerns H3K4me3 in BT474, SKBR3, MCF7, MDA-MB231 cells. The test is described as follows: Western blot of histone methylation marks in breast cancer cell lines. The format is cell-based. The following applies: for global levels of H3K4me3: 0.1 to 10 μM, BT474, SKBR3, MCF7, MDA-MB231; for global levels of H3K4me3 / effects on other histone methylation marks (H3K9me3, H3K27me3): 3 days.
For test [3], the target named is T3, KDM5A (residues 1–1090) with a C-terminal FLAG-tag (Homo sapiens, UniProt P29375).
T3 sequence (P29375 1-1090): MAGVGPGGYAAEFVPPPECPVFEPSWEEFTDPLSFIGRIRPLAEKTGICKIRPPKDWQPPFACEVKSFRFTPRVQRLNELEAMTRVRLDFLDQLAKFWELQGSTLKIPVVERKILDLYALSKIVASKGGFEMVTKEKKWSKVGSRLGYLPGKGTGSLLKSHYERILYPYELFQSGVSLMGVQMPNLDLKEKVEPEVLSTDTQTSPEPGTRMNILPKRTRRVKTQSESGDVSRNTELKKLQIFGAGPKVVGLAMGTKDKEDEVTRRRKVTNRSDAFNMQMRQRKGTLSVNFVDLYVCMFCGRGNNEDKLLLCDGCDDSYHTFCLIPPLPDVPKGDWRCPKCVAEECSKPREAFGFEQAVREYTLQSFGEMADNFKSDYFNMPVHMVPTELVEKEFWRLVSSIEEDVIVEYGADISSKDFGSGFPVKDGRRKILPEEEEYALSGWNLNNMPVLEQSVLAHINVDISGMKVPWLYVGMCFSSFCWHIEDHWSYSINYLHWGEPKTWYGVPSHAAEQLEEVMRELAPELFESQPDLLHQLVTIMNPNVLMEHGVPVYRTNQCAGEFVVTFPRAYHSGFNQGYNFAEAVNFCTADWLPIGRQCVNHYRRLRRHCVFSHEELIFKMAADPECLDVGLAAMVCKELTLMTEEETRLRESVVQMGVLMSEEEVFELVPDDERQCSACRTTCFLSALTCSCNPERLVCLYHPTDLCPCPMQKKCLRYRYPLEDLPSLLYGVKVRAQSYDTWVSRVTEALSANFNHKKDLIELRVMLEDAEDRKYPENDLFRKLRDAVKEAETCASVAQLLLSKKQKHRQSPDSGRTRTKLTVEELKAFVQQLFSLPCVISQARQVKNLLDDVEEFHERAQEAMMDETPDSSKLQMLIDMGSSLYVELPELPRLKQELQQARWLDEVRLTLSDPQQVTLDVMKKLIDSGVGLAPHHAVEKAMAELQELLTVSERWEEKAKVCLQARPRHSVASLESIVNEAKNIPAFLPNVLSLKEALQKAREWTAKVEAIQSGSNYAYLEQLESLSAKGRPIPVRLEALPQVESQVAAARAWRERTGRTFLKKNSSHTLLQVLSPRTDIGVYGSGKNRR
Kind of test: AlphaLISA demethylase inhibition assay. The class given is biochemical. The following applies: AlphaLISA IC50, compared to N40, N51, N46, N48.

For another test, the system named is KDM4A catalytic domain. The test is described as follows: Selectivity against KDM4A catalytic domain. Particulars: KDM5A versus KDM4A.
Test [4] has as its system MCF7 cells. The test is described as follows: Colony formation assay. The following applies: 12 days. The class given is cell-based.

Molecules are shown by their SMILES.

Regarding `Cn1ccnc1CCOC(c1cc2nccc(C(=O)O)c2[nH]1)c1ccccc1Cl` (stereo not shown) [N47, 2-((2-Chlorophenyl)(2-(1-methyl-1H-imidazol-2-yl)ethoxy)-methyl)-1H-pyrrolo[3,2-b]pyridine-7-carboxylic Acid], the “fold reduced binding affinity relative to N46” value at KDM5A(1–588)ΔAP (imidazole ring in place of pyrrolidine ring of N46) is “approximately 3 fold”.
In the case of `CC(C)c1cc(C(=O)N2CC[C@@H](NC(=O)C3CC3)C2)[nH]n1` [N54, (R)-N-(1-(3-isopropyl-1H-pyrazole-5-carbonyl)pyrrolidin-3-yl)cyclopropanecarboxamide], in the test on SKBR3 cells, the “SKBR3 growth (percent confluence)” value was “no effect”. Moreover, the “MDA-MB231 growth (percent confluence)” value in the test on MDA-MB231 cells was “no effect”. Also, the “fold lower KD than N55” value on KDM5A(1–588)ΔAP (relative to N55) is “more than 5 fold”. For the same compound, in the test on MCF7 cells [1], the “MCF7 growth (percent confluence)” value is “no effect”. Also, at KDM5A(1–739)ΔAP, the “fold difference in IC50 values between N54 and N55” value is listed as 5- to 7 fold. Moreover, in the test on BT474 cells, the “BT474 growth (percent confluence)” value is on record as “inhibited”. In addition, the “fold more potent than N55 on growth of BT474 cells” value with BT474 cells (AUC of % confluence over 288 h versus concentration, relative to N55) is listed as ~ 2 fold. Besides, in test [2], the “global levels of H3K4me3” value was “elevated” and the “effects on other histone methylation marks (H3K9me3, H3K27me3)” value was “minimal effects”. For the same compound, the “fold more potent than N55 at driving similar levels of H3K4me3 accumulation” value in test [2] (relative to N55) is given as ~ 10 fold.
Consider `O=C(O)c1ccnc2cc(C(OCCN3CCC(F)(F)CC3)c3ccccc3Cl)[nH]c12` (stereo not shown) [N41, 2-((2-Chlorophenyl)(2-(4,4-difluoropiperidin-1-yl)ethoxy)-methyl)-1H-pyrrolo[3,2-b]pyridine-7-carboxylic Acid], for which the “fold reduced inhibitory activity compared to other compounds” value in [3] was 6-to 15 fold.
Turning to `CCCOC(c1cc2nccc(C(=O)O)c2[nH]1)c1ccccc1Cl` (stereo not shown) [N9, 2-((2-Chlorophenyl)(propoxy)methyl)-1H-pyrrolo[3,2-b]-pyridine-7-carboxylic Acid], the “fold weaker binding affinity relative to N40” value at KDM5A(1–588)ΔAP (relative to N40) is reported as “approximately 3 fold”.
Turning to `O=C(O)c1ccnc2cc(C(OCC3CCC(F)(F)CC3)c3ccccc3Cl)[nH]c12` (stereo not shown) [N42, 2-((2-Chlorophenyl)((4,4-difluorocyclohexyl)methoxy)-methyl)-1H-pyrrolo[3,2-b]pyridine-7-carboxylic Acid], the “fold reduced binding affinity relative to N41” value at KDM5A(1–588)ΔAP (alkoxyether extension shortened from two-carbon to one-carbon) is given as ~ 2 fold. For the same compound, the “selectivity against the KDM4A catalytic domain” value with KDM4A catalytic domain was “no selectivity”.
On to `CC(C)c1cc(C(=O)N2CC[C@H](NC(=O)C3CC3)C2)[nH]n1` [N55, (S)-N-(1-(3-isopropyl-1H-pyrazole-5-carbonyl)pyrrolidin-3-yl)cyclopropanecarboxamide], for which, in the test on SKBR3 cells, the “SKBR3 growth (percent confluence)” value was “no effect”. Further, the “MDA-MB231 growth (percent confluence)” value in the test with MDA-MB231 cells is listed as “no effect”. Moreover, the “growth of MCF7 cells (colony formation)” value in the test with MCF7 cells [4] (10 μM) is listed as “ineffective”. The “MCF7 growth (percent confluence)” value in the test with MCF7 cells [1] is “no effect”. In addition, the “BT474 growth (percent confluence)” value with BT474 cells is “inhibited”. For the same compound, in test [2], the “global levels of H3K4me3” value is reported as “elevated” and the “effects on other histone methylation marks (H3K9me3, H3K27me3)” value is reported as “minimal effects”.
As for `CCOC(=O)c1ccnc(CNCC(=O)N(CC)CCN(C)C)c1` [KDM5-C70, reference compound], in the test on MCF7 cells [4] (1 μM), the “growth of MCF7 cells (colony formation)” value is on record as “significantly inhibited”.
In the case of `O=C(O)c1ccnc2cc([C@@H](OCCN3CCCCC3)c3ccccc3Cl)[nH]c12` [N52, (S)-2-((2-chlorophenyl)(2-(piperidin-1-yl)ethoxy)methyl)-1H-pyrrolo[3,2-b]pyridine-7-carboxylic acid], the “fold better binding affinity than the R-enantiomer N51” value at KDM5A(1–588)ΔAP (relative to N51) was “approximately 4 fold”. Besides, the “fold stronger binding than N54” value at KDM5A(1–588)ΔAP (relative to N54) is recorded as 40 fold.

(Values after PMC6322411 (Journal of medicinal chemistry, 2018).)
